Experimental data as given in US20250375441A1, “ONCOLYTIC THERAPY WITH A DUAL HDAC3 AND HDAC8 TARGETING AGENT” (priority 2024, published 2025).

Legend:
[1] = biological target: HDAC2 (Homo sapiens, UniProt Q92769); experiment: ZEBRA flow cytometry in cells overexpressing FLAG-HDAC2; conditions: HH514-16, 1 μM YX968 or 3 mM NaB, 24 hours after treatment, N=3
[2] = test system: EBV-positive HH514-16 Burkitt lymphoma cell line; experiment: qPCR of late lytic gene BFRF3; assay type: cell-based; conditions: HH514-16, varying concentrations, 48 hours, vs DMSO (0.1%), N=3
Method: Cells were harvested, RNA was extracted, RNA was converted to cDNA, and qPCR was performed. Expression of BFRF3, a late lytic gene, is increased (FIG. 2). […] Progression of the lytic cycle to late lytic gene expression indicates availability of the early gene product needed to activate ganciclovir. N=3 biological replicates.

[3] = test system: lymphoma cell line BC1 latently infected with KSHV; assay type: cell-based
[4] = test system: HH514-16 cells; experiment: Cell death after exposure; assay type: cell-based; conditions: 1 μM, 72 hours, vs DMSO (0.1%), N=2
[5] = biological target: HDAC1 (Homo sapiens, UniProt Q13547); experiment: ZEBRA flow cytometry in cells overexpressing HDAC1-FLAG; conditions: HH514-16, 1 μM YX968, 24 hours after treatment, N=3
Sequence of HDAC1 (Q13547 whole entry): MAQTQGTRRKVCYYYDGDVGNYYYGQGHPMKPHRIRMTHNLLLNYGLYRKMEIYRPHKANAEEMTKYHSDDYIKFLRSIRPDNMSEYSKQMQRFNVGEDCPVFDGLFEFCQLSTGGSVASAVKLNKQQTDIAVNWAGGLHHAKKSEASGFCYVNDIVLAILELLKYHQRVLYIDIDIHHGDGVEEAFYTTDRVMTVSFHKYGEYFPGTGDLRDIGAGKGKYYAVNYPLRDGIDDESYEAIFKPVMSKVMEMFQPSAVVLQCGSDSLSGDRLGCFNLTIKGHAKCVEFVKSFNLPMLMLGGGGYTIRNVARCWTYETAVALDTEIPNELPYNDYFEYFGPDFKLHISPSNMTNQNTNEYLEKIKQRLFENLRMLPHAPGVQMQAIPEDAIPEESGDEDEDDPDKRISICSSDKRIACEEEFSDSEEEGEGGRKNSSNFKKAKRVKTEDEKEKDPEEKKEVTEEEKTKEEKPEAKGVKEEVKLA

[6] = test system: BZLF1 promoter; experiment: H3K27Ac chromatin immunoprecipitation and qPCR at the BZLF1 promoter; conditions: HH514-16, 1 μM, 12 hours, vs DMSO (0.1%)
[7] = test system: EBV-positive HH514-16 Burkitt lymphoma cell line; experiment: ZEBRA staining by flow cytometry (EBV lytic reactivation); assay type: cell-based; conditions: HH514-16, varying concentrations, 24 hours, vs DMSO (0.1%)
From the text: Cells were harvested, fixed and permeabilized, stained with a monoclonal antibody to the viral latent-to-lytic switch protein ZEBRA (Bam Z EBV Replication Activator), and examined by flow cytometry. ZEBRA is an early lytic protein of EBV, encoded by BZLF1, that drives the lytic cascade. Cells were stained in parallel with an isotype-matched control antibody for placement of gates.

[8] = test system: EBV; experiment: EBV viral load by qPCR for BALF5, normalized to 18S; assay type: cell-based; conditions: HH514-16, 1 μM YX968 for 18 hours, then ganciclovir 40 μM; vs no ganciclovir, N=2
Method: Ganciclovir was then added at a concentration of 40 μM. Cells were then centrifuged, DNA was extracted, and qPCR for BALF5—a single copy EBV gene—was then used to determine the viral load of EBV in the cells. The ribosomal gene 18S was used as the control to normalize for the number of cells collected. […] N=2 biological replicates.

Sequence of HDAC2 (Q92769 whole entry): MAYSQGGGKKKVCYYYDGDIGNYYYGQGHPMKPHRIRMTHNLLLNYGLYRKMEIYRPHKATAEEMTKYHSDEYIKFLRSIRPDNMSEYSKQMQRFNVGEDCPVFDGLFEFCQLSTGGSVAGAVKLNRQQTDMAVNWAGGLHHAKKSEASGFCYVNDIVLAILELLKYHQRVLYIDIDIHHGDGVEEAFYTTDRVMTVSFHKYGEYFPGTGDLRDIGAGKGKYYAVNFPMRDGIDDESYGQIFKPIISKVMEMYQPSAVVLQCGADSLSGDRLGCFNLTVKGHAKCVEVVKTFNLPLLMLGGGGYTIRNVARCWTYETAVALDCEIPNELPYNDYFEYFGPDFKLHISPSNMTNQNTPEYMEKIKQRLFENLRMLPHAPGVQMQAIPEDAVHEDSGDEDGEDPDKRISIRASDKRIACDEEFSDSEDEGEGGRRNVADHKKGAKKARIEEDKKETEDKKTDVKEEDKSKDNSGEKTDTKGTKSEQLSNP

Compound | ZEBRA expression post-induction, HDAC2 overexpressing vs not overexpressing cells [1] | expression of BFRF3, a late lytic gene [2] | expression of immediate early gene RTA [3] | cells left alive [4] | number of cells that expressed ZEBRA, HDAC1 overexpressing (FLAG positive) vs FLAG negative [5] | amount of acetylated H3K27 at the BZLF1 promoter (fold enrichment vs control IgG) [6] | levels of ZEBRA (EBV switching to lytic phase) [7] | viral load of EBV [8]
CCCC(=O)[O-].[Na+] [NaB, sodium butyrate, reference compound] | less likely to express ZEBRA | – | – | – | – | – | – | –
CCCNNC(=O)c1ccc(N2CCN(CCCCCCCC(=O)N[C@H](C(=O)N3C[C@H](O)C[C@H]3C(=O)N[C@@H](C)c3ccc(-c4scnc4C)cc3)C(C)(C)C)CC2)cc1 [YX968] | less likely to express ZEBRA | increased | increases in expression | significantly fewer cells left alive | no significant change | statistically significant increase | increased levels of ZEBRA | –
Nc1nc(O)c2ncn(COC(CO)CO)c2n1 [ganciclovir] | – | – | – | – | – | – | – | significantly lower
